A short description of series [1]: Solubility/precipitation of cell‐free translated peptide in the reaction mix. The class given is physicochemical. The note with it: soluble vs pellet fraction. How it is done:
Complement 5a is flanked by an N‐terminal 6x His tag followed by a tobacco etch virus (TEV) cleavage site. […] Expression of both constructs is controlled by a T7 promoter. Cell‐free synthesis was accomplished using a homemade S30 extract from E. coli 6. The extract was prepared from the E. coli A19 strain, described in detail in 6. The T7 RNA polymerase was produced and purified as published 50. Cell‐free reactions were executed in continuous exchange mode by using different sizes of D‐Tube™ dialyzers (Merck Millipore) (mini for reactions containing labelled amino acids and maxi for reactions with unlabeled amino acids) and a 1 : 17 ratio between reaction (RM) and feeding mix (FM). Mini D‐tube™ dialyzers were placed into 2 mL tubes filled with feeding mix, maxi dialyzers into 50 mL tubes, respectively. […] Reactions were incubated at 30 °C, 100 rpm in an Infors Multitron shaker incubator (Infors, Bottmingen, Switzerland) overnight. Cell‐free reactions were analysed by SDS/PAGE using 10% Bis/Tris Novex NuPAGE gels (Life Technologies).

Series [2] concerns the target T1, human complement 5a receptor (C5aR) (Homo sapiens, UniProt P21730).
T1 construct: 10x His (N); FLAG (N); StrepII (C); made in house; host or cells: Sf9 insect cells (recombinant baculovirus, pOET5 / flashBAC); membrane preparation
T1 sequence (P21730 1-350): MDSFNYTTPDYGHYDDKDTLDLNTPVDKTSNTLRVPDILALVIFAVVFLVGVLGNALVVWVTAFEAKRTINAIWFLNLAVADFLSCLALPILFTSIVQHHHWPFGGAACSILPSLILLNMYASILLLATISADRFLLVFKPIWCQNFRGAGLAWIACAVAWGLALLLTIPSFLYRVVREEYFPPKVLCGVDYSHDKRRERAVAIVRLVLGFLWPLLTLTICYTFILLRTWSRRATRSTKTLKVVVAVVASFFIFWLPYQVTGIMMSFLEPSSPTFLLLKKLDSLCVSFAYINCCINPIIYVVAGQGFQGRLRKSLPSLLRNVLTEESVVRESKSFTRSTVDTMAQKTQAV
As to the kind of experiment: Competition binding against [^3H]‐C5a^CF at C5aR in Sf9 membranes. Particulars: read-out: KI (inhibition constant). The text has this:
The complement 5a receptor was coproduced with Gαi2 in Sf9 insect cells. The cDNA encoding the human complement 5a receptor flanked by an N‐terminal 10x His and FLAG tag and a C‐terminal StrepII tag was cloned into the pOET5 transfer vector (Oxford Expression Technologies, Oxford, UK). pOET5 contains two expression cassettes, the receptor is expressed under the control of a polyhedron promoter; Gαi2 expression is regulated by a p10 promoter. Recombinant baculoviruses were generated with the flashBAC protein expression system (Oxford Expression Technologies) according to manufacturer's instructions. […] Total membrane protein content was determined by the bicinchoninic acid (BCA) method using bovine serum albumin as the standard.
For the determination of binding parameters, membranes containing the respective receptors (10–50 μg total membrane protein) were incubated with cell‐free synthesized tritium‐labelled ligands in varying concentrations. Binding was terminated by rapid filtration over glass fibre filters pretreated with 0.3% polyethyleneimine using a Brandel harvester (Brandel, Alpha Biotech Ltd, Killearn, UK) and analysed by liquid scintillation counting. […]
Data are represented as means ± SEM from three or two independent experiments performed in triplicate and analysed in […] […]

The subject of series [3] is C5aR. The note with it: literature comparison; cited from earlier work. The text has this:
Table 1 Binding parameters of cell‐free synthesized radioligands | column: Literature IC50 [nM]

The target of series [4] is endothelin receptors (Table 1: compared with ETBR). The note with it: determined with ^125I‐ET‐1 on receptors from native human tissues; literature comparison; cited from earlier work.
The target in series [5] is C5aR. The note with it: C5aR in native human tissues; literature comparison; cited from earlier work. On the procedure: Table 1 Binding parameters of cell‐free synthesized radioligands | column: Literature KD [nM] || As the interaction between C5a and its receptor is mainly mediated by the disulphide bridged core region of C5a (residues 21–55, 22) and the C‐terminal region (especially Arg^74 30) the N‐terminal hexa‐histidine tag was not removed. The cell‐free synthesized ligand binds to the complement 5a receptor with a dissociation constant of 1.18 ± 0.27 nM (Fig. 4A), which corresponds to values determined by Gerard and Gerard for C5aR in native human tissues (1 nM 31, Table 1). Competition experiments with the unlabelled small molecule inverse agonist NDT 9513727 and the peptide antagonist H2N‐ChaW resu ...

Where [6] appears, read: with DsbA and reduced glutathione (GSH) replacing DTT.

“And” between values parts separate entries of the source, which are not always exact repeats. Equal entries are not always repeated. “Also recorded” adds a separate entry of the source.

The term Ki denotes the equilibrium dissociation constant of an inhibitor or competing ligand from its target. One may read the IC50 as the midpoint of a concentration-inhibition curve. By Kd is commonly meant a measure of binding affinity in units of concentration.

With `CC[C@H](C)[C@H](NC(=O)[C@H](CC(=O)O)NC(=O)[C@H](CC(C)C)NC(=O)[C@H](Cc1cnc[nH]1)NC(=O)[C@@H]1CSSC[C@H](N)C(=O)N[C@@H](CO)C(=O)N[C@H]2CSSC[C@H](NC(=O)[C@H](CCC(=O)O)NC(=O)[C@H](CCCCN)NC(=O)[C@H](CC(=O)O)NC(=O)[C@H](CCSC)NC(=O)[C@H](CC(C)C)NC(=O)[C@H](CO)NC(=O)[C@H](CO)NC2=O)C(=O)N[C@@H](C(C)C)C(=O)N[C@@H](Cc2ccc(O)cc2)C(=O)N[C@@H](Cc2ccccc2)C(=O)N1)C(=O)N[C@H](C(=O)N[C@@H](Cc1c[nH]c2ccccc12)C(=O)O)[C@@H](C)CC` [Endothelin‐1, reference compound], the “Solubility/precipitation of cell‐free product” value in series [1] (reducing conditions (DTT), without DsbA, listed as ET‐1) is “strong precipitation; also recorded: heavy precipitation”; in series [1] (setting [6]), “did not display any precipitates”.
Consider `CCCCn1c(-c2ccccc2)nc(-c2ccccc2)c1CN(Cc1ccc2c(c1)OCO2)Cc1ccc2c(c1)OCO2` [NDT 9513727, N,N‐Bis(1,3‐benzodioxol‐5‐ylmethyl)‐1‐butyl‐2,4‐diphenyl‐1H‐imidazole‐5‐methanamine], for which, in series [2], the inhibition constant (Ki) was 0.169 µM and 0.0545 µM. Moreover, in series [3], the concentration for half-maximal inhibition (IC50) was 0.0116 ± 0.001 µM.
On to ^125I‐ET‐1: ^125I‐labelled endothelin‐1, for which the Kd in series [4] was 0.00033 µM.

B1: C5a^CF: cell‐free‐synthesized complement 5a containing the N‐terminal 6xHis tag and TEV cleavage site (protein, UniProt P01031 678-751, looked up)
C5a anaphylatoxin: TLQKKIEEIAAKYKHSVVKKCCYDGACVNNDETCEQRAARISLGPRCIKAFTECCVVASQLRANISHKDMQLGR
modifications: C5a anaphylatoxin N-terminal 6xHis tag and TEV site
notes: cell‐free‐synthesized complement 5a containing the N‐terminal 6xHis tag and TEV cleavage site
Regarding B1, the “Solubility/precipitation of cell‐free product” value in series [1] (reducing conditions (DTT), without DsbA) is “strong precipitation; also recorded: insoluble and can only be detected in the pellet fraction; also recorded: heavy precipitation”; in series [1] (setting [6]), “did not display any precipitates; also recorded: can be detected in the soluble fraction”.

B2: ^125I‐C5a: commercially available ^125I‐C5a (protein, UniProt P01031 678-751, looked up)
C5a anaphylatoxin: B1 C5a anaphylatoxin
modifications: C5a anaphylatoxin 125I-labelled
notes: commercially available ^125I‐C5a
For B2, in series [5], the Kd is 0.001 µM.

(Values after PMC4794788, “Cell‐free synthesis of isotopically labelled peptide ligands for the functional characterization of G protein‐coupled receptors” (FEBS Open Bio, 2015).)
